Data as given in patent US9994558B2, “Multicyclic compounds and methods of using same” (Karyopharm Therapeutics Inc., priority 2013, dated 2018).

Key:
Type in all cases: cell-based
Z138 cells = experiment: MTT cell proliferation assay, Z138 cells; details: Homo sapiens, Z-138, incubation approximately 64-72 hours
Method: (§1) The MTT cell proliferation assay was used to study the cytotoxic properties of the compounds. The assay was performed according to the method described by Roche Molecular Biochemicals, with minor modifications. The assay is based on the cleavage of the tetrazolium salt, MTT, in the presence of an electron-coupling reagent. The water-insoluble formazan salt produced must be solubilized in an additional step. Cells grown in a 96-well tissue culture plate were incubated with the MTT solution for approximately 4 hours. After this incubation period, a water-insoluble formazan dye formed. After solubilization, the formazan dye was quantitated using a scanning multi-well spectrophotometer (ELISA reader). […] The cells were seeded at 5,000-10,000 cells in each well of 96-well plate in 100 μL of fresh culture medium and were allowed to attach overnight. The stock solutions of the compounds were diluted in 100 μL cell culture medium to obtain eight concentrations of each test compound, ranging from 1 nM to 30 μM. […] All optical densities were measured at 490 nm using a Vmax Kinetic Microplate Reader (Molecular Devices). In most cases, the assay was performed in duplicate and the results were presented as a mean percent inhibition to the negative control±SE. The following formula was used to calculate the percent of inhibition. Inhibition (%)=(1−(ODo/OD))×100.
(§2) The compounds were tested against MS751, Z138 and 3T3 cells. The MS751 cell line is derived from a metastasis to lymph node of human cervix from a patient diagnosed with squameous cell carcinoma of the cervix. The […] cell line is a mature B-cell acute lymphoblastic leukemia cell line derived from a patient with chronic lymphocytic leukemia. 3T3 cells are standard fibroblast cells; they were originally isolated from Swiss mouse embryo tissue.

MS751 cells = experiment: MTT cell proliferation assay, MS751 cells; details: Homo sapiens, incubation approximately 64-72 hours
Method: as §1, §2

3T3 cells = experiment: MTT cell proliferation assay, 3T3 cells; details: Mus musculus, NIH3T3; 3T3 fibroblast cells; incubation approximately 64-72 hours
Method: as §1, §2

NHDF cells = experiment: MTT cell proliferation assay, NHDF cells; details: normal human dermal fibroblast cells
Method: as §1, with “(%)=(1−(ODo/OD))×100. […]” for “(%)=(1−(ODo/OD))×100.”

Hep G2 cells = experiment: MTT cell proliferation assay, Hep G2 cells; details: HepG2; human hepatocellular carcinoma cells
Method: as §1, with “(%)=(1−(ODo/OD))×100. […]” for “(%)=(1−(ODo/OD))×100.”

HEP 3B cells = experiment: MTT cell proliferation assay, HEP 3B cells; details: Hep3B; human hepatocellular carcinoma cells
Method: as §1, with “(%)=(1−(ODo/OD))×100. […]” for “(%)=(1−(ODo/OD))×100.”

UCH-2 cell line = experiment: MTT cell proliferation assay, UCH-2 cells; details: UCH2; chordoma cell line
Method: as §1, with “(%)=(1−(ODo/OD))×100. […]” for “(%)=(1−(ODo/OD))×100.”

SNU-182 cell line = experiment: MTT cell proliferation assay, SNU-182 cells; details: human hepatoma cell line
Method: as §1, with “(%)=(1−(ODo/OD))×100. […]” for “(%)=(1−(ODo/OD))×100.”

L3.6pl cell line = experiment: MTT cell proliferation assay, L3.6pl cells; details: Homo sapiens, pancreatic cancer cell line
Method: as §1, with “(%)=(1−(ODo/OD))×100. […]” for “(%)=(1−(ODo/OD))×100.”

IC50 (SNU-182 cell line) [nM] | Compound | IC50 (Z138 cells) [nM] | IC50 (MS751 cells) [nM] | IC50 (3T3 cells) [nM] | IC50 (NHDF cells) [nM] | IC50 (Hep G2 cells) [nM] | IC50 (HEP 3B cells) [nM] | IC50 (UCH-2 cell line) [nM] | IC50 (L3.6pl cell line) [nM]
< 100 | Nc1ccc(/C=C/C(=O)NCCOc2ccc(-c3ccc(C(=O)N4CC(F)(F)C4)cc3)cc2Cl)cn1 [Compound 318, (E)-3-(6-aminopyridin-3-yl)-N-(2-(3-chloro-4′-(3,3-difluoroazetidine-1-carbonyl)biphenyl-4-yloxy)ethyl)acrylamide] | < 100 | < 100 | 100 to 5000 | < 100 | < 100 | < 100 | > 30000 | < 100
 | CC(C)(CNC(=O)/C=C/c1ccc(N)nc1)Oc1ccc(F)c(-c2ccc(C(=O)N3CCOCC3)cc2)c1 [Compound 340, (E)-3-(6-aminopyridin-3-yl)-N-(2-(6-fluoro-4′-(morpholine-4-carbonyl)biphenyl-3-yloxy)-2-methylpropyl)acrylamide] | < 100 | 100 to 5000 | > 10000 |  |  |  |  | 
 | [2H]C([2H])(CNC(=O)/C=C/c1ccc(N)nc1)Oc1ccc(-c2ccc(C(=O)N3CCOCC3)cc2)cc1Cl [Compound 342, (E)-3-(6-aminopyridin-3-yl)-N-(2,2-dideutero-2-(3-chloro-4′-(morpholine-4-carbonyl)biphenyl-4-yloxy)ethyl)acrylamide] | < 100 | < 100 | 100 to 5000 |  |  |  |  | 
 | [2H]C([2H])(CNC(=O)/C=C/c1ccc(N)nc1)Oc1ccc(F)c(-c2ccc(C(=O)N3CCOCC3)cc2)c1 [Compound 343, (E)-3-(6-aminopyridin-3-yl)-N-(2,2-dideutero-2-(6-fluoro-4′-(morpholine-4-carbonyl)biphenyl-3-yloxy)ethyl)acrylamide] | 100 to 5000 | 100 to 5000 | > 10000 |  |  |  |  | 
 | Nc1ccc(/C=C/C(=O)NCCOc2cc(Cl)cc(-c3ccc(C(=O)N4CCOCC4)cc3)c2)cn1 [Compound 344, (E)-3-(6-aminopyridin-3-yl)-N-(2-(5-chloro-4′-(morpholine-4-carbonyl)biphenyl-3-yloxy)ethyl)acrylamide] | < 100 | < 100 | 100 to 5000 |  |  |  |  | 
 | Nc1ccc(/C=C/C(=O)NCCCOc2cc(Cl)cc(-c3ccc(C(=O)N4CCOCC4)cc3)c2)cn1 [Compound 345, (E)-3-(6-aminopyridin-3-yl)-N-(3-(5-chloro-4′-(morpholine-4-carbonyl)biphenyl-3-yloxy)propyl)acrylamide] | < 100 | < 100 | 100 to 5000 |  |  |  |  | 
 | CC(C)(CNC(=O)/C=C/c1ccc(N)nc1)Oc1cc(Cl)cc(-c2ccc(C(=O)N3CCOCC3)cc2)c1 [Compound 347, (E)-3-(6-aminopyridin-3-yl)-N-(2-(5-chloro-4′-(morpholine-4-carbonyl)biphenyl-3-yloxy)-2-methylpropyl)acrylamide] | < 100 | 100 to 5000 | > 10000 |  |  |  |  | 
 | Nc1ccc(/C=C/C(=O)NCCCOc2ccc(-c3ccc(C(=O)N4CCOCC4)cc3)cc2Cl)cn1 [Compound 348, (E)-3-(6-aminopyridin-3-yl)-N-(3-(3-chloro-4′-(morpholine-4-carbonyl)biphenyl-4-yloxy)propyl)acrylamide] | < 100 | < 100 | 100 to 5000 |  |  |  |  | 
 | Nc1ccc(/C=C/C(=O)NCC(F)(F)COc2ccc(-c3ccc(C(=O)N4CCOCC4)cc3)cc2Cl)cn1 [Compound 349, (E)-3-(6-aminopyridin-3-yl)-N-(3-(3-chloro-4′-(morpholine-4-carbonyl)biphenyl-4-yloxy)-2,2-difluoropropyl)acrylamide] | < 100 | < 100 | 100 to 5000 |  |  |  |  | 
 | CC(C)(CNC(=O)/C=C/c1ccc(N)nc1)COc1ccc(-c2ccc(C(=O)N3CCOCC3)cc2)cc1Cl [Compound 350, (E)-3-(6-Aminopyridin-3-yl)-N-(3-((3-chloro-4′-(morpholine-4-carbonyl)-[1,1′-biphenyl]-4-yl)oxy)-2,2-dimethylpropyl)acrylamide] | < 100 | 100 to 5000 | 100 to 5000 |  |  |  |  | 
 | Nc1ccc(/C=C/C(=O)NCCOc2ccc(-c3nnc(C(=O)N4CCOCC4)o3)cc2Cl)cn1 [Compound 351, (E)-3-(6-aminopyridin-3-yl)-N-(2-(2-chloro-4-(5-(morpholine-4-carbonyl)-1,3,4-oxadiazol-2-yl)phenoxy)ethyl)acrylamide] | 100 to 5000 | 100 to 5000 | > 10000 |  |  |  |  | 
 | CC(CCOc1cc(-c2ccc(C(=O)N3CCC(F)(F)CC3)cn2)cc(C(F)(F)F)c1)NC(=O)/C=C/c1ccc(N)nc1 (stereo not drawn) [Compound 352, (E)-3-(6-aminopyridin-3-yl)-N-(4-(3-(5-(4,4-difluoropiperidine-1-carbonyl)pyridin-2-yl)-5-(trifluoromethyl)phenoxy)butan-2-yl)acrylamide] | 100 to 5000 | 100 to 5000 | > 10000 |  |  |  |  | 
 | Nc1ccc(CNC(=O)/C=C/COc2ccc(-c3ccc(C(=O)N4CCC(F)(F)CC4)cn3)cc2C(F)(F)F)cn1 [Compound 353, (E)-N-((6-aminopyridin-3-yl)methyl)-4-(4-(5-(4,4-difluoropiperidine-1-carbonyl)pyridin-2-yl)-2-(trifluoromethyl)phenoxy)but-2-enamide] | 100 to 5000 | 100 to 5000 | > 10000 |  |  |  |  | 
 | Nc1ccc(CNC(=O)/C=C\COc2ccc(-c3ccc(C(=O)N4CCC(F)(F)CC4)cn3)cc2C(F)(F)F)cn1 [Compound 354, (Z)—N-((6-aminopyridin-3-yl)methyl)-4-(4-(5-(4,4-difluoropiperidine-1-carbonyl)pyridin-2-yl)-2-(trifluoromethyl)phenoxy)but-2-enamide] | > 10000 | > 10000 | > 10000 |  |  |  |  | 
 | Nc1ccc(/C=C/C(=O)NCCOc2ccc(-c3ccc(C(=O)N4CCC(F)(F)CC4)cn3)cc2C(F)(F)F)cn1 [Compound 355, (E)-3-(6-aminopyridin-3-yl)-N-(2-(4-(5-(4,4-difluoropiperidine-1-carbonyl)pyridin-2-yl)-2-(trifluoromethyl)phenoxy)ethyl)acrylamide] | < 100 | < 100 | 100 to 5000 |  |  |  |  | 
